The source of these data is article PMC4700476, “Differential regulation by AMP and ADP of AMPK complexes containing different γ subunit isoforms” (Biochemical Journal, 2016).

The subject of one test is glucose uptake. Set-up: method as in PMID 25695398. The note with it: mouse skeletal muscle; cited from earlier work.
In test [1] the test system is γ2-containing AMPK complexes in HEK-293 cells expressing FLAG–γ2. Set-up: method as in PMID 25695398. As to conditions: anti-FLAG IP; cited from earlier work.
Test [2] deals with γ1-containing AMPK complexes in mouse skeletal muscle. Also noted: method as in PMID 25695398. The note with it: cited from earlier work.
For test [3], the system named is γ1-containing AMPK complexes in HEK-293 cells expressing FLAG–γ1. Also noted: method as in PMID 25695398. As to conditions: anti-FLAG IP; cited from earlier work.
For test [4], the system named is γ3-containing AMPK complexes in mouse skeletal muscle. Set-up: method as in PMID 25695398. As to conditions: cited from earlier work.
In test [5] the test system is γ3-containing AMPK complexes in HEK-293 cells expressing FLAG–γ3. Set-up: method as in PMID 25695398. As to conditions: anti-FLAG IP; cited from earlier work.
For test [6], the system named is AMPK γ1 complex (dephosphorylated, FLAG-tagged human γ1). The experiment in a line: Promotion of LKB1-dependent activation and Thr172 phosphorylation. It counts as biochemical. As to conditions: 5 mM ATP, imprecise estimate, read-out: IC50 for the inhibitory effect on activation by LKB1. The protocol:
(§1) Cell lysates (140, 500 and 2000 μg of lysate protein for γ1, γ2 and γ3 respectively) were incubated with 100 μl of EZview Red anti-FLAG M2 affinity gel, immunoprecipitated and washed as described previously. The IPs were resuspended in 100 μl of Hepes assay buffer and incubated in an orbital incubator with PP1γ (55 μg in 10 μl) in Hepes assay buffer for 30 min at 30°C. The dephosphorylation reactions were stopped by washing the IPs three times in Hepes assay buffer. The precipitates were then resuspended in 1 ml of Hepes assay buffer and divided into 100-μl aliquots. After centrifugation, 75 μl of each supernatant was removed, 5 μl of okadaic acid (final concentration 25 μM) was added and incubation continued for 5 min at 30°C. After this, AMP or ADP and LKB1 were added as specified and the reaction started by adding a mixture of MgCl2 (final concentration 9.8 mM) and ATP (final concentration 5 mM). Incubation was for 10 min at 30°C, after which the reactions were stopped by washing the IPs three times in Hepes assay buffer. They were resuspended in 400 μl of assay buffer and split for assays and analysis by Western blotting.
(§2) We next tested whether AMP promoted Thr^172 phosphorylation by LKB1, using complexes containing γ1, γ2 or γ3 expressed in HEK-293 cells and isolated using anti-FLAG antibody. The IPs were treated with the protein phosphatase-1 catalytic subunit (PP1γ) to remove phosphate from Thr^172, were washed to remove PP1γ, and okadaic acid was added to block the activity of any residual phosphatase. They were then treated with limiting quantities of LKB1 in the presence of 5 mM ATP (to mimic physiological conditions), with or without 1 mM AMP.
(§3) Figure 5 Effect of AMP on activation and Thr^172 phosphorylation of AMPK-γ isoforms induced by upstream kinases (A) Effect of a limiting quantity of LKB1, with or without AMP (1 mM), on AMPK activity. Anti-FLAG IPs from AMPK-γ1-, -γ2- or -γ3-expressing cells were treated with PP1γ to bring about complete dephosphorylation of Thr^172. PP1γ was removed by washing and okadaic acid was added to ensure complete inhibition of any residual phosphatase. The IPs were then incubated for 10 min with 5 mM ATP with or without LKB1 (1 μg) and with or without 1 mM AMP. […] (B) Effect of different concentrations of AMP on activation and Thr^172 phosphorylation of the AMPK-γ1 complex. Experiment as in (A) except using various concentrations of AMP in the presence of 5 mM ATP. Results in the upper panel (means ± S.E.M., n=6) are expressed relative to the control without AMP. Results were fitted to the equation: Y=1+[(activation–1) × X]/(EC50+X), where Y is the relative activity, X is the concentration of AMP, activation is the predicted maximal activation, and EC50 is the concentration of AMP causing half-maximal activation. The continuous line is the curve generated using this equation with the parameters quoted in the text. […] (C) As (A), except that we also tested the effects of 1 mM AMP on activation by CaMKKβ as well as LKB1. The amount of CaMKKβ added (0.34 μg) yielded a similar limited degree of activation to LKB1.
(§4) Figure 6 Effect of ADP on activation and Thr^172 phosphorylation of AMPK-γ isoforms induced by upstream kinases (A) Effect of AMP or ADP on activation of γ1-, γ2- or γ3-containing AMPK complexes induced by LKB1 in the presence of 5 mM ATP. Dephosphorylated AMPK complexes were generated as in Figure 3(A) and were incubated for 10 min with LKB1 with or without AMP (300 μM), ADP (1 mM) or the 5′-nucleotidase CD73 (0.86 μg). […] (B) Duplicate blots from the experiment shown in (A). (C) Effect of ADP on activation of AMPK-γ1 complexes by LKB1 in the presence of 5 mM ATP. The experiment was performed as in (A) except with various concentrations of ADP. Results (means ± S.E.M., n=3) are expressed relative to the basal activity in the absence of ADP and were fitted to the equation used for Figure 3(B). […]

Test [7] concerns the target T1, AMPK γ2 complex (dephosphorylated, FLAG-tagged human γ2) (Homo sapiens, UniProt Q13131+Q9UGJ0).
T1 construct: would have predominantly been the α1β2γ1, α1β2γ2 or α1β2γ3 complexes; expressed in transfected cells; host or cells: HEK-293 (Flp recombinase target site, tetracycline-inducible); anti-FLAG immunoprecipitate
Described as above. Format: biochemical. The note with it: ADP 1 mM, 5 mM ATP. The protocol:
as §1, §2, §3, §4

Test [8] deals with T2, AMPK γ1 complex (dephosphorylated, FLAG-tagged human γ1) (Homo sapiens, UniProt P54619+Q13131).
T2 construct: would have predominantly been the α1β2γ1, α1β2γ2 or α1β2γ3 complexes; expressed in transfected cells; host or cells: HEK-293 (Flp recombinase target site, tetracycline-inducible); anti-FLAG immunoprecipitate
Described as above. As to conditions: 5 mM ATP. It counts as biochemical. The protocol: as §1, §2, §3, §4

For test [9], the target named is T3, AMPK γ3 complex (dephosphorylated, FLAG-tagged human γ3) (Homo sapiens, UniProt Q13131+Q9UGI9).
T3 construct: would have predominantly been the α1β2γ1, α1β2γ2 or α1β2γ3 complexes; expressed in transfected cells; host or cells: HEK-293 (Flp recombinase target site, tetracycline-inducible); anti-FLAG immunoprecipitate
The test is described as above. Format: biochemical. The note with it: ADP 1 mM, 5 mM ATP. How it is done: as §1, §2, §3, §4

In test [10] the target is T4, AMPK γ2 complex (FLAG-tagged human γ2) (Homo sapiens, UniProt Q13131+Q9UGJ0).
T4 construct: would have predominantly been the α1β2γ1, α1β2γ2 or α1β2γ3 complexes; expressed in transfected cells; host or cells: HEK-293 (Flp recombinase target site, tetracycline-inducible); anti-FLAG immunoprecipitate
The test can be described thus: Protection against inactivation and Thr172 dephosphorylation by PP2Cα. Format: biochemical. The note with it: 5 mM ATP, read-out: half-maximal effect for protection against inactivation by PP2Cα. The protocol:
(§5) AMPK was activated by incubating the cells in phenformin (10 mM) for 60 min prior to cell lysis. Cell lysates (225, 225 and 455 μg of lysate protein for γ1, γ2 and γ3 respectively) were incubated with 100 μl of EZview Red anti-FLAG M2 affinity gel beads at 4°C for 2 h on a roller mixer. The beads were washed twice with 1 ml of immunoprecipitation buffer and twice with 1 ml of Hepes assay buffer, resuspended in 1 ml of assay buffer and divided into 100-μl aliquots. The beads were recovered by centrifugation and 75 μl of the supernatant removed. In a final volume of 50 μl, AMP, ADP (as specified), ATP (5 mM) and PP2Cα (1.5 μg) were added and the reaction was started by adding MgCl2 (9.8 mM) to activate PP2Cα; the reactions were then conducted in a shaking incubator at 30°C for 10 min. They were stopped by washing the beads three times in assay buffer, resuspending them in 400 μl of assay buffer and dividing them into aliquots for kinase assays and analysis by Western blotting.
(§6) Finally, we addressed the effects of AMP and ADP on the dephosphorylation of γ1, γ2 and γ3 complexes by the protein phosphatase PP2Cα. Cells expressing γ1, γ2 or γ3 complexes were treated with phenformin to promote Thr^172 phosphorylation, the complexes were then isolated by immunoprecipitation and equal amounts (based on anti-FLAG blots) were treated with a limiting quantity of PP2Cα in the presence of increasing concentrations of AMP or ADP. As before, in order to simulate physiological conditions, these assays were performed in the presence of 5 mM ATP. […] The similar effects of AMP on all three complexes were confirmed by Western blot analysis using anti-pThr^172 antibodies (lower panel). The effects of ADP are shown in Figure 7(B); similar to results previously obtained with rat liver AMPK [28]
(§7) Figure 7 Effect of AMP and ADP on protection against Thr^172 dephosphorylation, measured at 5 mM ATP (A) […], -γ2 or -γ3 complexes were immunoprecipitated from cells treated with phenformin to cause maximal Thr^172 phosphorylation. The IPs were then incubated for 10 min with the protein phosphatase PP2Cα in the presence of 5 mM ATP and various concentrations of AMP. Inactivation was assessed by kinase assays (top panel) and Thr^172 dephosphorylation by Western blot (bottom panels). Results (means ± S.E.M., n=2) in the top panel are shown as percentage protection, which is the inactivation compared with control (without AMP), expressed as a percentage of the inactivation compared with control at the highest concentration of AMP used. Results were fitted to the equation Y=100 × X/(EC50+X) where Y is the percentage protection, X is the concentration of AMP, and EC50 is the concentration of AMP causing half-maximal protection. The continuous lines are the curves generated using this equation using the best-fit parameters quoted in the text. […] (B) As (A), but varying ADP in place of AMP.

Test [11] addresses T5, AMPK γ1 complex (FLAG-tagged human γ1) (Homo sapiens, UniProt P54619+Q13131).
T5 construct: would have predominantly been the α1β2γ1, α1β2γ2 or α1β2γ3 complexes; expressed in transfected cells; host or cells: HEK-293 (Flp recombinase target site, tetracycline-inducible); anti-FLAG immunoprecipitate
The test is described as above. It counts as biochemical. The note with it: 5 mM ATP, read-out: half-maximal effect for protection against inactivation by PP2Cα. How it is done:
as §5, §6, §7

Test [12] has as its target T6, AMPK γ3 complex (FLAG-tagged human γ3) (Homo sapiens, UniProt Q13131+Q9UGI9).
T6 construct: would have predominantly been the α1β2γ1, α1β2γ2 or α1β2γ3 complexes; expressed in transfected cells; host or cells: HEK-293 (Flp recombinase target site, tetracycline-inducible); anti-FLAG immunoprecipitate
The test is described as above. It counts as biochemical. The note with it: 5 mM ATP, read-out: half-maximal effect for protection against inactivation by PP2Cα. The protocol:
as §5, §6, §7

“And” between values parts separate entries of the source, which are not always exact repeats. Equal entries are not always repeated.

T2 sequence (P54619 whole entry): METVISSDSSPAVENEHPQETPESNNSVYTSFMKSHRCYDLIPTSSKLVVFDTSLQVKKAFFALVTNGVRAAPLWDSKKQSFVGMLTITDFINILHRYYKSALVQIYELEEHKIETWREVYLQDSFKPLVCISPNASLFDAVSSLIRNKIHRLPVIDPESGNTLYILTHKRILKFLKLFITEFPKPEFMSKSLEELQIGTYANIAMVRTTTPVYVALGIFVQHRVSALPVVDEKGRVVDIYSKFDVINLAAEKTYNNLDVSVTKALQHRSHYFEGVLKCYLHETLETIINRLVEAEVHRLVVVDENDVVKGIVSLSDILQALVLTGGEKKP
T2 sequence (Q13131 whole entry): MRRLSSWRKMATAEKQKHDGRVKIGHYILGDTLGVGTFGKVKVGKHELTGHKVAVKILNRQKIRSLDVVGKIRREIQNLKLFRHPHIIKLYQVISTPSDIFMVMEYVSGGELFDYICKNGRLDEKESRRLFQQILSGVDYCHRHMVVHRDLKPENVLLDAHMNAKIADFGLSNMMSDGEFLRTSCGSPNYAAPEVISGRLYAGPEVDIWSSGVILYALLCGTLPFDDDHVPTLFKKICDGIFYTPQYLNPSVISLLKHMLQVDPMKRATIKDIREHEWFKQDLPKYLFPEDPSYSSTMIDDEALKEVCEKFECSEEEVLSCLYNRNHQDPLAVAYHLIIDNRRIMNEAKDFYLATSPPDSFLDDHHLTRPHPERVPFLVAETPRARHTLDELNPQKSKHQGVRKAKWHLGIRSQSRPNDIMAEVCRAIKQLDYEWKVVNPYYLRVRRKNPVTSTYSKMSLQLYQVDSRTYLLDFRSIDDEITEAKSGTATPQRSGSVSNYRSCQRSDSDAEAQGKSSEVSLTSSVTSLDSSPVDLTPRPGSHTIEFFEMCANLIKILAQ
T2 sequence (O43741 whole entry partner): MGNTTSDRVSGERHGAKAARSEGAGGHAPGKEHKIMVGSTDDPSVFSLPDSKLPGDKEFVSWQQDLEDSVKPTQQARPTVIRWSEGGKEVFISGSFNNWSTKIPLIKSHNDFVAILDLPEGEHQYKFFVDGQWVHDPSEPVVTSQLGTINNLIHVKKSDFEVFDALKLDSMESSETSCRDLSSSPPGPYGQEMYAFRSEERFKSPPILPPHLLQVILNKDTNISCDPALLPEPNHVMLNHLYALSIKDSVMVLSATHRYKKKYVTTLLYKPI
T1 sequence (Q9UGJ0 whole entry): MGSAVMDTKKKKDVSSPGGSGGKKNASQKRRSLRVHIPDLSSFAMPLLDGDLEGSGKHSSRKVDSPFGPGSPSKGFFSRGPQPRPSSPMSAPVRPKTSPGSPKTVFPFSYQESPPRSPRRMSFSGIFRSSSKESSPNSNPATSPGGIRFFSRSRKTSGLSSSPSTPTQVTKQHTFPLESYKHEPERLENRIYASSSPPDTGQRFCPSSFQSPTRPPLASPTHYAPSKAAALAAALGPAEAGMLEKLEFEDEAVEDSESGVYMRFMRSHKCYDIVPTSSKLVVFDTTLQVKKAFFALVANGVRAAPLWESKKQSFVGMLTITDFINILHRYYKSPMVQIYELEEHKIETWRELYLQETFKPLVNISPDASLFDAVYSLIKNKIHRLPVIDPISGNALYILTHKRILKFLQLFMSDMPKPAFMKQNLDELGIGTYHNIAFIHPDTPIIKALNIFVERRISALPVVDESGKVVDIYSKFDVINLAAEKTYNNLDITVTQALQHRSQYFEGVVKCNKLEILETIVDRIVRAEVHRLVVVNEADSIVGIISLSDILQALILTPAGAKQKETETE
T1 sequence (Q13131 whole entry): as the sequence (Q13131 whole entry) above
T1 sequence (O43741 whole entry partner): as the sequence (O43741 whole entry partner) above
T4 sequence (Q9UGJ0 whole entry): as the sequence (Q9UGJ0 whole entry) above
T4 sequence (Q13131 whole entry): as the sequence (Q13131 whole entry) above
T4 sequence (O43741 whole entry partner): as the sequence (O43741 whole entry partner) above
T5 sequence (P54619 whole entry): as the sequence (P54619 whole entry) above
T5 sequence (Q13131 whole entry): as the sequence (Q13131 whole entry) above
T5 sequence (O43741 whole entry partner): as the sequence (O43741 whole entry partner) above
T3 sequence (Q9UGI9 whole entry): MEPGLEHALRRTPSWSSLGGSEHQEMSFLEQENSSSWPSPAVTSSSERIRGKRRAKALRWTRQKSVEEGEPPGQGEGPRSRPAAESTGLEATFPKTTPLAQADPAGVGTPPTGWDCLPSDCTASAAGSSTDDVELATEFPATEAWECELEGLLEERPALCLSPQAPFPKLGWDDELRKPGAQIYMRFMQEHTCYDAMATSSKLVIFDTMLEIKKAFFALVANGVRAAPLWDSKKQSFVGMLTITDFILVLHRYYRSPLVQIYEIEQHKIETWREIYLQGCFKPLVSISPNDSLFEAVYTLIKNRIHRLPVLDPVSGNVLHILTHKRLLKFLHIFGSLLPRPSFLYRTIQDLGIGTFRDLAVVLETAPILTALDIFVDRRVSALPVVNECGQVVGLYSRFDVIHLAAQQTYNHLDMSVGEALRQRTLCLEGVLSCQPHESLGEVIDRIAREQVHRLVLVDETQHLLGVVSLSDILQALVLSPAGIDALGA
T3 sequence (Q13131 whole entry): as the sequence (Q13131 whole entry) above
T3 sequence (O43741 whole entry partner): as the sequence (O43741 whole entry partner) above
T6 sequence (Q9UGI9 whole entry): as the sequence (Q9UGI9 whole entry) above
T6 sequence (Q13131 whole entry): as the sequence (Q13131 whole entry) above
T6 sequence (O43741 whole entry partner): as the sequence (O43741 whole entry partner) above

As for `Cc1cc(-c2ccc(/C=C3/SC(=Nc4ccc(Cl)c(C(=O)O)c4)NC3=O)o2)c([N+](=O)[O-])cc1C` [PT-1], the glucose uptake entry in the test with glucose uptake is reported as “did not promote glucose uptake”. Moreover, the “activation of complex in HEK-293 cells” value in [1], in test [3] and in test [5] was “all three complexes were activated” throughout. Moreover, in [2], the “activation of γ1-containing complexes” value is reported as “activates”. For the same molecule, the “activation of γ3-containing complexes” value in test [4] was “not”.
With `Nc1ncnc2c1ncn2[C@@H]1O[C@H](COP(=O)(O)OP(=O)(O)O)[C@@H](O)[C@H]1O` [ADP], the IC50 in test [6] was 6800 ± 3100 µM. The “effect on activation by LKB1” value in test [7] and in test [9] was “not significant” in each case. For the same molecule, the EC50 is 1800 µM and ≥ 1000 µM in test [8] (imprecise estimate, read-out: EC50 for the activating effect on activation by LKB1); 180 ± 20 µM in [10]; 910 ± 70 µM in test [11]; 980 ± 150 µM in [12]. For the same molecule, in [8] (ADP), the “stimulation of activation caused by Thr172 phosphorylation by LKB1” value was roughly 2 fold. Also, the “activation (best-fit, promotion of activation by LKB1)” value in test [8] (various ADP, constrained to be 5-fold or less, confidence limits extremely wide) is on record as 5 fold.
